Data on three compounds can be found in ChEMBL document CHEMBL1201862, “PubChem BioAssay data set” (2004).

The IC50 is the concentration that gives 50% inhibition. For orientation: CC50 means the concentration giving 50% cytotoxicity. As a reminder, the EC50 is the concentration giving half of the maximal effect. For orientation: AC50 means the concentration at which the activity in the assay is half-maximal.

The target of assay [1] is Serine/threonine-protein phosphatase (Homo sapiens, UniProt Q9BPW0). In words: inhibition of protein phosphatase 5 activity – biochemical, fluorescence, dose response (AID 2395).
For the next assay, the target named is T1, Caspase-3 (Homo sapiens, UniProt P42574).
T1 sequence (P42574 whole entry): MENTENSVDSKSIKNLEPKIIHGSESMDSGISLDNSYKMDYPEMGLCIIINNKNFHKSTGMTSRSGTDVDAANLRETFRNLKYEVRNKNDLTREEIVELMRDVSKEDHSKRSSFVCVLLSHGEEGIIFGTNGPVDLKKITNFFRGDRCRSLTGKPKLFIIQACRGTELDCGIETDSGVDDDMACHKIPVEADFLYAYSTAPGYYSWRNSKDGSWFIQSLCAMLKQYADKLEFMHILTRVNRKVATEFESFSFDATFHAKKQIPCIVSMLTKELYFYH
In words: SAR Analysis of small molecule inhibitors of Sentrin-specific proteases (SENPs) using a Caspase-3 Selectivity assay. [Related pubchem assays (depositor defined):AID2540, AID2599, AID434973, AID489001]. The assay is classed as functional.

In assay [2] the target is T2, Sentrin-specific protease 7 (Homo sapiens, UniProt Q9BQF6).
T2 sequence (Q9BQF6 whole entry): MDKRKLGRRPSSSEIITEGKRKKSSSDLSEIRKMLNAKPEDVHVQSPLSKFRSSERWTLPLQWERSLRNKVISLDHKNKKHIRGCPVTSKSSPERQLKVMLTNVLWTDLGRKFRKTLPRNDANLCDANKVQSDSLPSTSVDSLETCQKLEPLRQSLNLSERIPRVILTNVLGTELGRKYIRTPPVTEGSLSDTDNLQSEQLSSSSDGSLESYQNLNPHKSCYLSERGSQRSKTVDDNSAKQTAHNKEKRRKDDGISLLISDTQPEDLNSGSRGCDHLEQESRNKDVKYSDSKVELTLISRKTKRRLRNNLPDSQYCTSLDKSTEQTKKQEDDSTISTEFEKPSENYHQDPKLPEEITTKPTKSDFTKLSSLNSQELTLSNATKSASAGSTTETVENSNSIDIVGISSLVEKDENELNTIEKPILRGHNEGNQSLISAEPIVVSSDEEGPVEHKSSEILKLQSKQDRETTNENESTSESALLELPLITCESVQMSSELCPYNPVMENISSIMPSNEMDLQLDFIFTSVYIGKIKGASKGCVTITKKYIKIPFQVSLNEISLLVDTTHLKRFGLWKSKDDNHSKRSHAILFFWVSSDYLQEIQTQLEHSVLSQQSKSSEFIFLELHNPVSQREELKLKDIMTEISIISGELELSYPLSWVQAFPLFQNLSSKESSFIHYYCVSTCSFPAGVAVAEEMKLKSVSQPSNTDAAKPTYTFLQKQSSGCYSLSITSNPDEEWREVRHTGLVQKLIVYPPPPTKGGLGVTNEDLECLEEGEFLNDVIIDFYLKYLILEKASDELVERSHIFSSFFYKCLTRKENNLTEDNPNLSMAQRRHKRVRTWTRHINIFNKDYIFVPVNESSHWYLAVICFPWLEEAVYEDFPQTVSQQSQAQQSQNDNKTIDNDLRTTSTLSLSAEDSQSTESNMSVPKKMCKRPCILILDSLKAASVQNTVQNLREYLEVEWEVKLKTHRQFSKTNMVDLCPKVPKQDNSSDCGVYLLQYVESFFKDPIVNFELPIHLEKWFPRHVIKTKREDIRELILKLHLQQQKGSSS
In words: inhibition of human SENP7 cleavage activity – biochemical, luminescence, SAR follow-up (AID 504497). It counts as functional.

A short description of assay [3]: viability loss in HeLa cells – cytotoxicity control for MgcRacGAP inhibitor project, dose response (AID 624300). The assay is classed as functional.
In assay [4] the test system is Streptococcus sp. 'group A'. As to the kind of experiment: Streptococcus pyogenes SK(-)GAS viability under kanamycin – luminescence, BacTiterGlo, confirmation, counter-screen for streptokinase expression inhibitor project, dose response (AID 1900). The assay is classed as functional, organism-based.
A further assay concerns the target T3, Streptokinase A (Streptococcus pyogenes serotype M1, UniProt P10520).
T3 sequence (P10520 whole entry): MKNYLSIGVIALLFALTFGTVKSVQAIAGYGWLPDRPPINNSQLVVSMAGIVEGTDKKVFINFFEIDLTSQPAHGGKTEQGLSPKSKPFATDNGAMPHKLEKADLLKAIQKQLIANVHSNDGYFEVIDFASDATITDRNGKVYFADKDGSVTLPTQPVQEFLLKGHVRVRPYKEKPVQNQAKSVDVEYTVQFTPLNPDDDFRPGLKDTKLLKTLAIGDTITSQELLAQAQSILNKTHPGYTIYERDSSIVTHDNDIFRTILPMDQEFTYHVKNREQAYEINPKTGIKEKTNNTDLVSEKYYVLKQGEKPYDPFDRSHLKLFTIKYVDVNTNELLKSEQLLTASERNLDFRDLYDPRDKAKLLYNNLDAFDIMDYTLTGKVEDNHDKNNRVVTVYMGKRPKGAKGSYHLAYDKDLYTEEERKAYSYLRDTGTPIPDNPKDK
As to the kind of experiment: viability-normalized secreted streptokinase activity reduction – plasminogen activation absorbance, OD405, dose response (AID 1914).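 Note: secreted streptokinase activity via plasminogen activation per viability signal from cell pellet.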 The assay is classed as functional, Streptococcus pyogenes M1 GAS.

A short description of another assay: cells. It counts as functional, cell-based.
Another assay has as its system INS1. In words: INS-1E survival protection against cytokine death – cell-based, luminescence, retest, dose response (AID 449756).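 Note: cell death triggered by IL-1 beta plus TNF-alpha plus IFN-gamma mixture; protective hits raise ATP signal compared with cytokine alone wells.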 The assay is classed as functional. As to conditions: Rattus norvegicus.
Another assay addresses Mu-type opioid receptor (Homo sapiens, UniProt P35372). In words: HTS Image-Based Screen for Agonists of the MOR Receptor. [Related pubchem assays (depositor defined):AID1777, AID1785, AID1786, AID2133]. It counts as functional.
For assay [5], the target named is Delta-type opioid receptor (Homo sapiens, UniProt P41143). In words: HTS Image-Based Screen for Agonists of the DOR Receptor. [Related pubchem assays (depositor defined):AID1777, AID1786, AID2133]. It counts as functional.
Assay [6] concerns the target G-protein coupled receptor 55 (Homo sapiens, UniProt Q9Y2T6). In words: inhibition of LPI-stimulated GPR55 beta-arrestin translocation – imaging, U2OS, beta-arrestin-GFP, LPI agonist, primary screen (AID 2013).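 Note: antagonist potency measured as reduced agonist-driven arrestin aggregation.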 It counts as functional.
The target of assay [7] is T4, Kappa-type opioid receptor (Homo sapiens, UniProt P41145). The assay is classed as functional.
The target of assay [8] is T4, Kappa-type opioid receptor. It counts as functional. The source holds these as a separate data set.

Active and inactive are the calls of the source.

T4 sequence (P41145 whole entry): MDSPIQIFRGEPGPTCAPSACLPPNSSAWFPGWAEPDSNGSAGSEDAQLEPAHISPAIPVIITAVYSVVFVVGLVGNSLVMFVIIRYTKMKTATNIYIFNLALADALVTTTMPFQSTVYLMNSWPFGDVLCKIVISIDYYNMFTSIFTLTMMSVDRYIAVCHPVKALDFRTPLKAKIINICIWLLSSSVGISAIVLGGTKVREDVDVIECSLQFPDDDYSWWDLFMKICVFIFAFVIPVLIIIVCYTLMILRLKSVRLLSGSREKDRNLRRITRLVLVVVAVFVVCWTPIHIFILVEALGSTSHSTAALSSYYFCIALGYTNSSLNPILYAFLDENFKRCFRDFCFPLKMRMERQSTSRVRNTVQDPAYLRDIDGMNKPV
Chain of G-protein coupled receptor 55 (Q9Y2T6 whole entry): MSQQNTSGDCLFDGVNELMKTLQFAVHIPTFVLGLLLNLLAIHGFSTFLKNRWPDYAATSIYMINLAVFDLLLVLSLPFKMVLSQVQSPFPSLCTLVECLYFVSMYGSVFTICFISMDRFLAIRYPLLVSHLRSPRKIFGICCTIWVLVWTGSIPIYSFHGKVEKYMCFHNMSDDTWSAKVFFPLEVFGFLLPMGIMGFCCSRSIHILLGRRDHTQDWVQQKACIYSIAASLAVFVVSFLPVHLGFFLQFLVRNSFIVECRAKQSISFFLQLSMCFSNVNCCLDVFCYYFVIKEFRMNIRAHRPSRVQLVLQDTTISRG
Chain of Serine/threonine-protein phosphatase (Q9BPW0 whole entry): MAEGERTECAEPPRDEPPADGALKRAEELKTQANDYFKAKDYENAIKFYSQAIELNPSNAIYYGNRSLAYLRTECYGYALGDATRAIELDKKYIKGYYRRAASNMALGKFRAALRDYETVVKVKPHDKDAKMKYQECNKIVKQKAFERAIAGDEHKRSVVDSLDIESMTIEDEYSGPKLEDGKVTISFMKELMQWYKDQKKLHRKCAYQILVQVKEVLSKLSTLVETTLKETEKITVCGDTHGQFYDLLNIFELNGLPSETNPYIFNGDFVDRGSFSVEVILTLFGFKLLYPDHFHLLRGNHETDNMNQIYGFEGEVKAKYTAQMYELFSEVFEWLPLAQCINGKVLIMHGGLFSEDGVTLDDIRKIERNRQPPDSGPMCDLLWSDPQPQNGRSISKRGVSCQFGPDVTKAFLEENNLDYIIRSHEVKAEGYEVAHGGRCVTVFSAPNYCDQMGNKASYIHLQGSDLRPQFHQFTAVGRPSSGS
Chain of Delta-type opioid receptor (P41143 whole entry): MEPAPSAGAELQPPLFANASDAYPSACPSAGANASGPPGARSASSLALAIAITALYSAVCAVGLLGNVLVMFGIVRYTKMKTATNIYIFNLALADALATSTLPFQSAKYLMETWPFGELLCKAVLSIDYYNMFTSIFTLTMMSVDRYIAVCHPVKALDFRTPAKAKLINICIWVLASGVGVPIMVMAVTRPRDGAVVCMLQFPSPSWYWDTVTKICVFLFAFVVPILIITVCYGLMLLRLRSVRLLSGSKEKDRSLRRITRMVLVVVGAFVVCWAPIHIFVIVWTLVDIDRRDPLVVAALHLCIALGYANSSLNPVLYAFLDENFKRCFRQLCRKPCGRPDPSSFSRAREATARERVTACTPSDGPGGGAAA
Chain of Mu-type opioid receptor (P35372 whole entry): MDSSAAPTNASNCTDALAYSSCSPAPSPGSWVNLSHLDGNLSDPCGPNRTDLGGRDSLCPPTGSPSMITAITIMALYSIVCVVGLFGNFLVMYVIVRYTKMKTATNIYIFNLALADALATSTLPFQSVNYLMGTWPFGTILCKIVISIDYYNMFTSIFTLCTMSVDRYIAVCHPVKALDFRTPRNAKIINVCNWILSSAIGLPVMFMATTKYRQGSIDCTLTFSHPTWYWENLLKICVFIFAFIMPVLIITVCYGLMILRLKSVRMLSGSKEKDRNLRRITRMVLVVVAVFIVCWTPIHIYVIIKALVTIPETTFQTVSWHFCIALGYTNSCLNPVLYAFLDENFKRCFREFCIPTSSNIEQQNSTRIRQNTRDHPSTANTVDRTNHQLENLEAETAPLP

`Oc1ccc(/C=N\Nc2cc(N3CCOCC3)nc(N3CCOCC3)n2)c(O)c1`: the results for the IC50 (in assay [1]; on Caspase-3; in assay [2]) were 5.72 µM (active), > 99 µM (inactive) and 78 µM (active), respectively. Moreover, the CC50 in assay [3] was 100 µM (active).

In the case of `Cc1ccc(C)c(S(=O)(=O)N2CCN(Cc3ccc(O)c4ncccc34)CC2)c1`, the EC50 in [4] is 6.87 µM (active); on Streptokinase A it was > 150 µM (not active); in “cells”, > 350 µM (not active). In addition, in the assay with INS1, the AC50 is 2.48 µM (active).

Turning to `COc1cc(NC(=O)Cn2ncc(Cl)c(Cl)c2=O)c(C)cc1[N+](=O)[O-]`, the EC50 (on Mu-type opioid receptor; in assay [5]) was > 32 µM (inactive) throughout. Moreover, the concentration for half-maximal inhibition (IC50) was 3.52 µM (active) in assay [6], 12.9 µM (active) in [7] and 13.9 µM in [8].
